{"source": "patent US11896558B2", "about": "“Use of an RXR agonist and taxanes in treating Her2+ cancers” (Io Therapeutics, Inc., priority 2021, dated 2024)", "key": {"[1]": {"assay": "Daily dosing of IRX4204 free acid in adult human", "format": "in vivo"}, "RAR/RXR": {"test_system": "RAR/RXR", "assay": "Activation of non-permissive RAR/RXR heterodimer", "format": "cell-based"}, "FXR/RXR": {"test_system": "FXR/RXR", "assay": "Activation of FXR/RXR heterodimer", "details": "permissive heterodimer"}, "[2]": {"test_system": "Her2+ AU565 human breast cancer cell line", "assay": "Growth inhibition of AU565 cells, nuclei count", "format": "cell-based", "details": "paclitaxel 2.5, 5 or 10 nM, IRX4204 10, 100 or 1000 nM, 6-10 days", "procedure": "After 6-10 days of treatment, cells were fixed with 4% paraformaldehyde. Nuclei were stained with DAPI, imaged using ImageXpress® Pico (Molecular Devices) and counted using CellReporterXpress® Analysis Software. Each data point represents the average of six replicates.\nTo assess whether the increased inhibition from the combination of agents was additive or synergistic, the Combination Index (CI) was calculated using the computational program CompuSyn (ComboSyn, Inc.)."}, "RXR homodimers": {"test_system": "RXR homodimers", "assay": "Activation of RXR homodimers", "format": "cell-based"}, "RARβ": {"target": "RARβ (Homo sapiens, UniProt P10826)", "sequence (P10826 whole entry, species assumed, canonical isoform)": "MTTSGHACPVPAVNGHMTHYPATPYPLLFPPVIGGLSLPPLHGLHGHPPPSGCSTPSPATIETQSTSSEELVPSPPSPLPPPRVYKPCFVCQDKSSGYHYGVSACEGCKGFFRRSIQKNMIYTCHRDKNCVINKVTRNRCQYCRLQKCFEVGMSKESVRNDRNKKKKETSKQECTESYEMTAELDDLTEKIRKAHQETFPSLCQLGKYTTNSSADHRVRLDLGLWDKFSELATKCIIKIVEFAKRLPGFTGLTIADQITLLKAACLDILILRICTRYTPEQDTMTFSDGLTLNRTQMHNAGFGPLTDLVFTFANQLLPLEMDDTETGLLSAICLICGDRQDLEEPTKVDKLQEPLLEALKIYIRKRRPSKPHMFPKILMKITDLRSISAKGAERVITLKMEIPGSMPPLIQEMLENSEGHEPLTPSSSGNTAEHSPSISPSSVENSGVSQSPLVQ", "details": "β isoform"}, "Nurr1/RXR heterodimer": {"test_system": "Nurr1/RXR heterodimer", "assay": "Activation of Nurr1/RXR heterodimer", "details": "permissive heterodimer"}, "[3]": {"assay": "Systemic concentrations after oral dosing in humans"}, "PPAR/RXR": {"test_system": "PPAR/RXR", "assay": "Activation of PPAR/RXR heterodimer", "format": "cell-based", "details": "permissive heterodimer"}, "RARα": {"target": "RARα (Homo sapiens, UniProt P10276)", "sequence (P10276 whole entry, species assumed, canonical isoform)": "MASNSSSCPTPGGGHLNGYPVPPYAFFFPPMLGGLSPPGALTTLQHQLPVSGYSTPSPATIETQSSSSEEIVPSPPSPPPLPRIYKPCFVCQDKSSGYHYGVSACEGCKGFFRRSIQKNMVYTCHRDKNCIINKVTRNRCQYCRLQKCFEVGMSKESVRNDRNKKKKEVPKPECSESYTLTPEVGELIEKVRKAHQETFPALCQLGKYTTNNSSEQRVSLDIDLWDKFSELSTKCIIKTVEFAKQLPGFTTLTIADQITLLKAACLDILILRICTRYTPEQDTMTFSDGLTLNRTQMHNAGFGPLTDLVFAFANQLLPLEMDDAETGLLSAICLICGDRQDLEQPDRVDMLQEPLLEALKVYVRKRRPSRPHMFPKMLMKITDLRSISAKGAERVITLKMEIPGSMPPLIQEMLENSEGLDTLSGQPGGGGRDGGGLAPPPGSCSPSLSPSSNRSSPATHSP", "details": "α isoform"}, "RARγ": {"target": "RARγ (Homo sapiens, UniProt P13631)", "sequence (P13631 whole entry, species assumed, canonical isoform)": "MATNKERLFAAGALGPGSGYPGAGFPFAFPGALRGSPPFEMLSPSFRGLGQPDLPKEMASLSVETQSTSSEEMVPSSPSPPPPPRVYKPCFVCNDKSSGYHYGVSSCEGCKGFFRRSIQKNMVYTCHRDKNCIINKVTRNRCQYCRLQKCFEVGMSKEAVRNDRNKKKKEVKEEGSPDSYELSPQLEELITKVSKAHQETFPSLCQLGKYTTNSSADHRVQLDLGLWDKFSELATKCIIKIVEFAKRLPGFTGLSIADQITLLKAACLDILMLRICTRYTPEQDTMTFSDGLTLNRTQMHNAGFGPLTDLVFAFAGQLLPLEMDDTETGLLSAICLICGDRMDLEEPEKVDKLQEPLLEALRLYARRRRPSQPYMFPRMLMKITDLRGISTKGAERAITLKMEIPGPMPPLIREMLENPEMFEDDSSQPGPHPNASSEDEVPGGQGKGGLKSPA", "details": "γ isoform"}, "LXR/RXR": {"test_system": "LXR/RXR", "assay": "Activation of LXR/RXR heterodimer", "format": "cell-based", "details": "permissive heterodimer"}, "[4]": {"test_system": "PPAR/RXR, FXR/RXR, or LXR/RXR", "details": "cited from earlier work"}, "[5]": {"test_system": "NSCLC (non-small cell lung cancer)", "details": "cited from earlier work"}}, "note": "“Also recorded” adds a separate entry of the source.", "data": [{"compound": "CC(/C=C/[C@@H]1C[C@]1(C)c1ccc2c(c1)C(C)(C)CCC2(C)C)=C\\C(=O)O", "note": "[IRX4204, 3,7-dimethyl-6(S),7(S)-methano,7-[1,1,4,4-tetramethyl-1,2,3,4-tetrahydron-aphth-7-yl]2(E), 4(E) heptadienoic acid]", "values": [{"measurement": "hypothyroidism", "setting": "[1]; 10 mg/day free acid", "value": "does not result in hypothyroidism"}, {"measurement": "hypothyroidism", "setting": "[1]; 20 mg/day free acid", "value": "may induce a mild hypothyroidism"}, {"measurement": "activation of RAR/RXR heterodimer", "setting": "RAR/RXR", "value": "does not activate"}, {"measurement": "activation of FXR/RXR heterodimer", "setting": "FXR/RXR", "value": "does not activate"}, {"measurement": "growth inhibition as sole agent", "setting": "[2]", "value": "sensitive; also recorded: near maximal effect"}, {"measurement": "activation of RXR homodimers", "setting": "RXR homodimers", "value": "specifically activate"}, {"measurement": "RAR EC10 (concentration effective to cause a 10% of maximal activation of the RAR)", "setting": "RARβ", "value": 200, "unit": "nM"}, {"measurement": "activation of Nurr1/RXR heterodimer", "setting": "Nurr1/RXR heterodimer", "value": "specifically activates"}, {"measurement": "systemic concentrations", "setting": "[3]; oral dosage 0.01 to 0.02 mg/m^2/day, estimated", "value": "at least 0.1 nM"}, {"measurement": "systemic concentrations", "setting": "[3]; oral dosage 20 mg/m^2/day, based on studies in humans", "value": "below 200 nM"}, {"measurement": "activation of PPAR/RXR heterodimer", "setting": "PPAR/RXR", "value": "does not activate"}, {"measurement": "RAR EC10 (concentration effective to cause a 10% of maximal activation of the RAR)", "setting": "RARα", "value": 300, "unit": "nM"}, {"measurement": "RAR EC10 (concentration effective to cause a 10% of maximal activation of the RAR)", "setting": "RARγ", "value": 200, "unit": "nM"}, {"measurement": "activation of LXR/RXR heterodimer", "setting": "LXR/RXR", "value": "does not activate"}]}, {"compound": "Cc1cc2c(cc1C1(c3ccc(C(=O)O)cn3)CC1)C(C)(C)CCC2(C)C", "note": "[LGD268]", "values": [{"measurement": "activation of one or more of PPAR/RXR, FXR/RXR, or LXR/RXR", "setting": "[4]", "value": "activates one or more of PPAR/RXR, FXR/RXR, or LXR/RXR"}]}, {"compound": "C=C(c1ccc(C(=O)O)cc1)c1cc2c(cc1C)C(C)(C)CCC2(C)C", "note": "[TARGRETIN, bexarotene]", "values": [{"measurement": "survival in pivotal Phase III clinical study", "setting": "[5]; NSCLC", "value": "did not show increased survival"}, {"measurement": "results of Phase II studies", "setting": "[5]; several Phase II studies in NSCLC", "value": "Encouraging results"}]}, {"compound": "CC(=O)O[C@H]1C(=O)[C@@]2(C)[C@H]([C@H](OC(=O)c3ccccc3)[C@]3(O)C[C@H](OC(=O)[C@H](O)[C@@H](NC(=O)c4ccccc4)c4ccccc4)C(C)=C1C3(C)C)[C@]1(OC(C)=O)CO[C@@H]1C[C@@H]2O", "note": "[paclitaxel, Paclitaxel, reference compound]", "values": [{"measurement": "growth inhibition as sole agent", "setting": "[2]", "value": "sensitive"}]}]}
